Assay results taken from patent US10597388B2, “Pyridazinone herbicides” (FMC CORPORATION, priority 2014, dated 2020).

How the values were obtained:
Assay in all cases: Test D controlled growth environment herbicide test, pre- and postemergence
Type in all cases: in vivo
[1] = tested on: buckwheat, wild (wild buckwheat, Polygonum convolvulus)
Outline: (§1)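 Species sown in silt loam and sprayed preemergence, or grown in peat-based medium to 2–18 cm (1- to 4-leaf stage) and sprayed postemergence, with compounds in non-phytotoxic solvent plus surfactant. Visual injury scored versus controls after 14–21 d in a controlled environment, 0 (no effect) to 100 (complete control).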

[2] = tested on: galium (catchweed bedstraw, Galium aparine)
Outline: as §1

[3] = tested on: ryegrass, Italian (Italian ryegrass, Lolium multiflorum)
Outline: as §1

[4] = tested on: blackgrass (Alopecurus myosuroides)
Outline: as §1

kochia (Kochia scoparia) = tested on: kochia (Kochia scoparia)
Outline: as §1

[5] = tested on: pigweed (Amaranthus retroflexus)
Outline: as §1

[6] = tested on: wheat, winter (winter wheat, Triticum aestivum)
Outline: as §1

[7] = tested on: canarygrass (Phalaris minor)
Outline: as §1

[8] = tested on: chickweed (common chickweed, Stellaria media)
Outline: as §1

[9] = tested on: bluegrass (annual bluegrass, Poa annua)
Outline: as §1

[10] = tested on: Russian thistle (Salsola kali)
Outline: as §1

[11] = tested on: field poppy (Papaver rhoeas)
Outline: as §1

[12] = tested on: foxtail, green (green foxtail, Setaria viridis)
Outline: as §1

[13] = Postemergence, 31 g ai/ha, scale 0 to 100 (0 no effect, 100 complete control)
[14] = Postemergence, 125 g ai/ha, visual rating on scale 0 (no effect) to 100 (complete control), 14 to 21 d
[15] = Postemergence, 250 g ai/ha, scale 0 to 100 (0 no effect, 100 complete control)
[16] = Preemergence, 62 g ai/ha, scale 0 to 100 (0 no effect, 100 complete control)
[17] = Preemergence, 125 g ai/ha, scale 0 to 100 (0 no effect, 100 complete control)
[18] = Preemergence, 250 g ai/ha, scale 0 to 100 (0 no effect, 100 complete control)
[19] = postemergence, 62 g ai/ha, scale 0 to 100, 0 no effect, 100 complete control

Question: For `Cc1cc(C)c2sc(C)c(-c3c(OC(=O)OC(C)C)c(C)nn(C)c3=O)c2c1` [Compound 67], which “Buckwheat, Wild plant response rating” value [1, 13] is on record?
Answer: Its value is 100.

Question: And the “Plant response rating, Buckwheat, Wild” value [1, 14]?
Answer: The value was 100.

Question: And the “Plant response rating, Buckwheat, Wild” value [1, 15]?
Answer: Its value is 100.

Question: What about the “Plant response rating (scale of 0 to 100), Buckwheat, Wild” value ([1]; Preemergence, 31 g ai/ha) of the same compound?
Answer: Its value is 0.

Question: What about the “Plant response rating, Buckwheat, Wild” value [1, 16] of the same compound?
Answer: The value was 0.

Question: What about the “Plant response rating, Buckwheat, Wild” value [1, 17] of the same compound?
Answer: Its value is 0.

Question: What about the “Plant response rating, Buckwheat, Wild” value [1, 18] of the same compound?
Answer: The value was 0.

Question: And the “Plant response rating, Buckwheat, Wild” value [1, 19]?
Answer: The value was 100.

Question: And the “Galium plant response rating” value [2, 13]?
Answer: The value was 90.

Question: What about the “Plant response rating, Galium” value [2, 14] of the same compound?
Answer: The value was 100.

Question: And the “Plant response rating, Galium” value [2, 15]?
Answer: The value was 100.

Question: And the “Plant response rating (scale of 0 to 100), Galium” value ([2]; Preemergence, 31 g ai/ha)?
Answer: Its value is 0.

Question: What about the “Plant response rating, Galium” value [2, 16] of the same compound?
Answer: Its value is 10.

Question: What about the “Plant response rating, Galium” value [2, 17] of the same compound?
Answer: The value was 35.

Question: What about the “Plant response rating, Galium” value [2, 18] of the same compound?
Answer: Its value is 70.

Question: And the “Plant response rating, Galium” value [2, 19]?
Answer: The value was 100.

Question: What about the “Ryegrass, Italian plant response rating” value [3, 13] of the same compound?
Answer: The value was 85.

Question: What about the “Plant response rating, Ryegrass, Italian” value [3, 14] of the same compound?
Answer: The value was 98.

Question: And the “Plant response rating, Ryegrass, Italian” value [3, 15]?
Answer: The value was 100.

Question: What about the “Plant response rating (scale of 0 to 100), Ryegrass, Italian” value ([3]; Preemergence, 31 g ai/ha) of the same compound?
Answer: Its value is 75.

Question: What about the “Plant response rating, Ryegrass, Italian” value [3, 16] of the same compound?
Answer: The value was 80.

Question: And the “Plant response rating, Ryegrass, Italian” value [3, 17]?
Answer: The value was 85.

Question: And the “Plant response rating, Ryegrass, Italian” value [3, 18]?
Answer: The value was 90.

Question: And the “Plant response rating, Ryegrass, Italian” value [3, 19]?
Answer: The value was 90.

Question: And the “Blackgrass plant response rating” value [4, 13]?
Answer: Its value is 70.

Question: What about the “Plant response rating, Blackgrass” value [4, 14] of the same compound?
Answer: Its value is 85.

Question: What about the “Plant response rating, Blackgrass” value [4, 15] of the same compound?
Answer: The value was 95.

Question: What about the “Plant response rating (scale of 0 to 100), Blackgrass” value ([4]; Preemergence, 31 g ai/ha) of the same compound?
Answer: Its value is 75.

Question: What about the “Plant response rating, Blackgrass” value [4, 16] of the same compound?
Answer: Its value is 75.

Question: What about the “Plant response rating, Blackgrass” value [4, 17] of the same compound?
Answer: Its value is 75.

Question: What about the “Plant response rating, Blackgrass” value [4, 18] of the same compound?
Answer: The value was 80.

Question: What about the “Plant response rating, Blackgrass” value [4, 19] of the same compound?
Answer: The value was 75.

Question: What about the “Kochia plant response rating” value (kochia (Kochia scoparia); [13]) of the same compound?
Answer: The value was 10.

Question: And the “Plant response rating, Kochia” value (kochia (Kochia scoparia); [14])?
Answer: Its value is 40.

Question: And the “Plant response rating, Kochia” value (kochia (Kochia scoparia); [15])?
Answer: Its value is 50.

Question: And the “Plant response rating (scale of 0 to 100), Kochia” value (kochia (Kochia scoparia); Preemergence, 31 g ai/ha)?
Answer: Its value is 0.

Question: What about the “Plant response rating, Kochia” value (kochia (Kochia scoparia); [16]) of the same compound?
Answer: The value was 0.

Question: What about the “Plant response rating, Kochia” value (kochia (Kochia scoparia); [17]) of the same compound?
Answer: Its value is 0.

Question: And the “Plant response rating, Kochia” value (kochia (Kochia scoparia); [18])?
Answer: The value was 0.

Question: And the “Plant response rating, Kochia” value (kochia (Kochia scoparia); [19])?
Answer: Its value is 35.

Question: What about the “Pigweed plant response rating” value [5, 13] of the same compound?
Answer: The value was 75.

Question: And the “Plant response rating, Pigweed” value [5, 14]?
Answer: Its value is 85.

Question: And the “Plant response rating, Pigweed” value [5, 15]?
Answer: Its value is 100.

Question: And the “Plant response rating (scale of 0 to 100), Pigweed” value ([5]; Preemergence, 31 g ai/ha)?
Answer: The value was 35.

Question: And the “Plant response rating, Pigweed” value [5, 16]?
Answer: The value was 95.

Question: What about the “Plant response rating, Pigweed” value [5, 17] of the same compound?
Answer: The value was 100.

Question: What about the “Plant response rating, Pigweed” value [5, 18] of the same compound?
Answer: The value was 100.

Question: And the “Plant response rating, Pigweed” value [5, 19]?
Answer: The value was 80.

Question: And the “Wheat, Winter plant response rating” value [6, 13]?
Answer: The value was 0.

Question: And the “Plant response rating, Wheat, Winter” value [6, 14]?
Answer: Its value is 0.

Question: What about the “Plant response rating, Wheat, Winter” value [6, 15] of the same compound?
Answer: Its value is 0.

Question: And the “Plant response rating (scale of 0 to 100), Wheat, Winter” value ([6]; Preemergence, 31 g ai/ha)?
Answer: Its value is 0.

Question: What about the “Plant response rating, Wheat, Winter” value [6, 16] of the same compound?
Answer: Its value is 0.

Question: And the “Plant response rating, Wheat, Winter” value [6, 17]?
Answer: The value was 0.

Question: What about the “Plant response rating, Wheat, Winter” value [6, 18] of the same compound?
Answer: The value was 5.

Question: And the “Plant response rating, Wheat, Winter” value [6, 19]?
Answer: Its value is 0.

Question: What about the “Canarygrass plant response rating” value [7, 13] of the same compound?
Answer: The value was 75.

Question: And the “Plant response rating, Canarygrass” value [7, 14]?
Answer: Its value is 85.

Question: And the “Plant response rating, Canarygrass” value [7, 15]?
Answer: The value was 95.

Question: And the “Plant response rating (scale of 0 to 100), Canarygrass” value ([7]; Preemergence, 31 g ai/ha)?
Answer: The value was 40.

Question: And the “Plant response rating, Canarygrass” value [7, 16]?
Answer: The value was 85.

Question: And the “Plant response rating, Canarygrass” value [7, 17]?
Answer: The value was 90.

Question: What about the “Plant response rating, Canarygrass” value [7, 18] of the same compound?
Answer: Its value is 95.

Question: And the “Plant response rating, Canarygrass” value [7, 19]?
Answer: The value was 85.

Question: What about the “Chickweed plant response rating” value [8, 13] of the same compound?
Answer: Its value is 85.

Question: What about the “Plant response rating, Chickweed” value [8, 14] of the same compound?
Answer: The value was 100.

Question: What about the “Plant response rating, Chickweed” value [8, 15] of the same compound?
Answer: Its value is 100.

Question: And the “Plant response rating (scale of 0 to 100), Chickweed” value ([8]; Preemergence, 31 g ai/ha)?
Answer: Its value is 100.

Question: What about the “Plant response rating, Chickweed” value [8, 16] of the same compound?
Answer: The value was 100.

Question: What about the “Plant response rating, Chickweed” value [8, 17] of the same compound?
Answer: Its value is 100.

Question: And the “Plant response rating, Chickweed” value [8, 18]?
Answer: Its value is 100.

Question: And the “Plant response rating, Chickweed” value [8, 19]?
Answer: The value was 100.

Question: What about the “Bluegrass plant response rating” value [9, 13] of the same compound?
Answer: The value was 5.

Question: And the “Plant response rating, Bluegrass” value [9, 14]?
Answer: Its value is 20.

Question: And the “Plant response rating, Bluegrass” value [9, 15]?
Answer: Its value is 30.

Question: And the “Plant response rating (scale of 0 to 100), Bluegrass” value ([9]; Preemergence, 31 g ai/ha)?
Answer: The value was 0.

Question: What about the “Plant response rating, Bluegrass” value [9, 16] of the same compound?
Answer: Its value is 0.

Question: And the “Plant response rating, Bluegrass” value [9, 17]?
Answer: Its value is 20.

Question: What about the “Plant response rating, Bluegrass” value [9, 18] of the same compound?
Answer: Its value is 50.

Question: What about the “Plant response rating, Bluegrass” value [9, 19] of the same compound?
Answer: The value was 15.

Question: And the “Russian Thistle plant response rating” value [10, 13]?
Answer: Its value is 55.

Question: What about the “Plant response rating, Russian Thistle” value [10, 14] of the same compound?
Answer: The value was 75.

Question: And the “Plant response rating, Russian Thistle” value [10, 15]?
Answer: The value was 85.

Question: And the “Plant response rating (scale of 0 to 100), Russian Thistle” value ([10]; Preemergence, 31 g ai/ha)?
Answer: The value was 0.

Question: And the “Plant response rating, Russian Thistle” value [10, 16]?
Answer: Its value is 0.

Question: What about the “Plant response rating, Russian Thistle” value [10, 17] of the same compound?
Answer: Its value is 0.

Question: What about the “Plant response rating, Russian Thistle” value [10, 18] of the same compound?
Answer: The value was 25.

Question: What about the “Plant response rating, Russian Thistle” value [10, 19] of the same compound?
Answer: Its value is 60.

Question: And the “Field Poppy plant response rating” value [11, 13]?
Answer: Its value is 80.

Question: What about the “Plant response rating, Field Poppy” value [11, 14] of the same compound?
Answer: Its value is 100.

Question: And the “Plant response rating, Field Poppy” value [11, 15]?
Answer: The value was 100.

Question: What about the “Plant response rating (scale of 0 to 100), Field Poppy” value ([11]; Preemergence, 31 g ai/ha) of the same compound?
Answer: The value was 100.

Question: And the “Plant response rating, Field Poppy” value [11, 16]?
Answer: Its value is 100.

Question: What about the “Plant response rating, Field Poppy” value [11, 17] of the same compound?
Answer: The value was 100.

Question: What about the “Plant response rating, Field Poppy” value [11, 18] of the same compound?
Answer: Its value is 100.

Question: What about the “Plant response rating, Field Poppy” value [11, 19] of the same compound?
Answer: Its value is 100.

Question: What about the “Foxtail, Green plant response rating” value [12, 13] of the same compound?
Answer: The value was 80.

Question: What about the “Plant response rating, Foxtail, Green” value [12, 14] of the same compound?
Answer: Its value is 100.

Question: And the “Plant response rating, Foxtail, Green” value [12, 15]?
Answer: The value was 100.

Question: And the “Plant response rating (scale of 0 to 100), Foxtail, Green” value ([12]; Preemergence, 31 g ai/ha)?
Answer: Its value is 15.

Question: What about the “Plant response rating, Foxtail, Green” value [12, 16] of the same compound?
Answer: Its value is 80.

Question: And the “Plant response rating, Foxtail, Green” value [12, 17]?
Answer: Its value is 85.

Question: What about the “Plant response rating, Foxtail, Green” value [12, 18] of the same compound?
Answer: Its value is 85.

Question: What about the “Plant response rating, Foxtail, Green” value [12, 19] of the same compound?
Answer: Its value is 90.
